Values joined by “and” are separate entries in the source; they are usually repeats but may differ in a detail not shown here. Equal entries are not always repeated. Where two headings read alike, the source gives them in different places.
Tests used:
[1] = biological target: A/chicken/Cambodia/CMB07.71LC3/2007 neuraminidase (Influenza A virus (A/chicken/Cambodia/CMB07.71LC3/2007(H5N1)), UniProt E1B5P8); type: biochemical, HPAI H5N1 avian influenza virus
[2] = biological target: A/chicken/Suphanburi/2509/2004 neuraminidase (Influenza A virus (H5N1), UniProt Q5SDA6); type: biochemical, HPAI H5N1 avian influenza virus
[3] = system: clade 2.1 viruses circulating in Indonesia (neuraminidase); settings: cited from earlier work
[4] = biological target: A/chicken/Cambodia/CMB07.71LC2/2007 neuraminidase (Influenza A virus, UniProt E1B5P8); type: biochemical, HPAI H5N1 avian influenza virus
[5] = biological target: A/chicken/Saraburi/10713/2005 neuraminidase (Influenza A virus (A/chicken/Saraburi/10713/2005(H5N1)), UniProt Q2LDC8); type: biochemical, HPAI H5N1 avian influenza virus
[6] = biological target: A/chicken/Cambodia/CMB07.71LC1/2007 neuraminidase (Influenza A virus, UniProt E1B5P8); type: biochemical, HPAI H5N1 avian influenza virus
[7] = biological target: A/chicken/Bangli/BBVD-563/2007 neuraminidase (clade 2.1 wild type) (Influenza A virus, UniProt F1SW80); type: biochemical, HPAI H5N1 avian influenza virus
[8] = in vivo; cited from earlier work
[9] = biological target: clade 1.1 HPAI H5N1 isolates from Thailand (neuraminidase) (Influenza A virus, UniProt Q5SDA6); type: biochemical, HPAI H5N1 avian influenza virus; settings: read-out: IC50, Mean (SD)
[10] = biological target: A/chicken/Cambodia/CMB07.71LC4/2007 neuraminidase (Influenza A virus (A/chicken/Cambodia/CMB07.71LC4/2007(H5N1)), UniProt E1B5P8); type: biochemical, HPAI H5N1 avian influenza virus
[11] = biological target: clade 2.1 HPAI H5N1 isolates from Indonesia (neuraminidase) (Influenza A virus, UniProt F5HQR3); type: biochemical, HPAI H5N1 avian influenza virus
[12] = biological target: A/chicken/Wates/126/2005 neuraminidase (clade 2.1 reference) (Influenza A virus (H5N1), UniProt Q1W1F4); type: biochemical, HPAI H5N1 avian influenza virus; settings: read-out: IC50, Mean (SD)
[13] = system: A/chicken/Bangli/BBVD-562/2007, A/chicken/West Java Tangerang/PTB6/2008, A/chicken/West Java/Tja-31/2008, A/chicken/Payakumbuh/BPPVRII-307/2007 neuraminidases; type: biochemical
[14] = biological target: clade 1 isolates from Viet Nam and Cambodia (neuraminidase); settings: cited from earlier work
[15] = biological target: A/duck/Cambodia/CMB07.72/2007 neuraminidase (Influenza A virus, UniProt E1B5P8); type: biochemical, HPAI H5N1 avian influenza virus
[16] = biological target: A/chicken/Vietnam/08/2004 neuraminidase (clade 1.1 wild type) (Influenza A virus (H5N1), UniProt Q6DPL2); type: biochemical, HPAI H5N1 avian influenza virus
[17] = read-out: 60 min IC50, Preincubation step (+)
[18] = read-out: 60 min IC50, Preincubation step (−)

CCOC(=O)C1=C[C@@H](OC(CC)CC)[C@H](NC(C)=O)[C@@H](N)C1 [Oseltamivir, oseltamivir]
IC50 [1]: 0.51 nM
IC50 [2]: 0.61 nM
IC50 [3]: 11 nM and 11.5 nM
IC50 [4]: 0.78 nM
IC50 [5]: 0.68 nM
IC50 [6]: 0.77 nM
Binding kinetics (in words) [7]: partial loss of slow binding, and faster dissociation
IC50 [7, 17]: 19.6 nM
IC50 [7, 18]: 21.4 nM
Levels in plasma [8]: 400 to 1200 nM
Levels in saliva [8]: less than 5 % of plasma levels
IC50 [9]: 0.97 nM
IC50 [10]: 0.75 nM
IC50 ([11]; read-out: Extreme High Outliers, IC50 cut-off): > 63.7 nM
IC50 ([11]; read-out: IC50, IQR (25th-75th percentile)): 21.2 to 28.2 nM and 20.4 to 26.4 nM
IC50 ([11]; read-out: IC50, Median): 24.9 nM and 24.4 nM
IC50 ([11]; read-out: IC50, range): 10.6 to 349 nM and 12.6 to 62.4 nM
IC50 ([11]; read-out: IC50s of extreme outliers): 63 to 350 nM
IC50 ([11]; read-out: IC50s of many of the outliers): > 50 nM
IC50 ([11]; read-out: Mean and median IC50): ~25 nM
IC50 ([11]; read-out: Median IC50): 25 nM
IC50 ([11]; read-out: Mild High Outliers, IC50 cut-off): > 42.4 nM
IC50 [12]: 15.9 nM and 19.8 nM
Binding kinetics (in words) [13]: no longer slow binding
IC50 [14]: 0.5 nM
IC50 [15]: 0.65 nM

CCC(CC)[C@H](NC(C)=O)[C@@H]1[C@H](O)[C@@H](C(=O)O)C[C@H]1N=C(N)N [Peramivir, peramivir]
Ratio (−)/(+) of 60 min IC50s [7]: 9
IC50 [7, 17]: 0.6 nM
IC50 [7, 18]: 5.4 nM
Ratio (−)/(+) of 60 min IC50s [16]: 8.9
IC50 [16, 17]: 0.7 nM
IC50 [16, 18]: 6.2 nM
Binding kinetics (in words) [13]: None of these viruses demonstrated loss of slow binding

CC(=O)N[C@H]1[C@H]([C@H](O)[C@H](O)CO)OC(C(=O)O)=C[C@@H]1N=C(N)N [Zanamivir, zanamivir]
Extreme High Outliers, number of viruses [11]: 0 (>7.2) and 0 (>5.6)
Binding kinetics (in words) [13]: None of these viruses demonstrated loss of slow binding
